The record followed here is patent US6596718B1, “7-Morpholin-4yl-benzothiazole amide derivatives” (Hoffmann-La Roche Inc., priority 2001, dated 2003).

Structures are written as SMILES.

Data set [1] deals with T1, human adenosine A1 receptor (Homo sapiens, UniProt P30542).
T1 construct: expressed in transfected cells; host or cells: CHO cells, Semliki Forest virus expression system; membrane preparation
T1 sequence (P30542 1-326): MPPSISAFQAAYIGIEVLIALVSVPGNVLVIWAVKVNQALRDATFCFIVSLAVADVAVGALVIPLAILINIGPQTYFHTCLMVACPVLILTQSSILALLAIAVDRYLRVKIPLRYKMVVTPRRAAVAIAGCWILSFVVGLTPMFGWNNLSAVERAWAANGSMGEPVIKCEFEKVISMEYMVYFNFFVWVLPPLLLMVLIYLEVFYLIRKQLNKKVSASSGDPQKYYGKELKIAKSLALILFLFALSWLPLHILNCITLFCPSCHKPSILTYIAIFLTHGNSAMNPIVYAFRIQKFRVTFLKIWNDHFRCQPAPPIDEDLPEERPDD
As to the kind of experiment: [3H]-DPCPX binding assay, human adenosine A1 receptor (SPA, CHO cell membranes). The note with it: recombinant human A1 in CHO membranes; [3H]-DPCPX 0.6 nM; Ki by Cheng-Prussoff; read-out: hA1 (pKi) (converted). The method, then: Human Adenosine A1 Receptor
(§1) The human adenosine A1 receptor was recombinantly expressed in chinese hamster ovary (CHO) cells using the semlilki forest virus expression system. Cells were harvested, washed twice by centrifugation, homogenized and again washed by centrifugation. The final washed membrane pellet was suspended in a Tris (50 mM) buffer containing 120 mM NaCl, 5 mM KCl, 2 mM CaCl2 and 10 mM MgCl2 (pH 7.4) (buffer A). The [^3H]-DPCPX (([propyl-^3H]8-cyclopentyl-1,3-dipropyxanthine); 0.6 nM) binding assay was carried out in 96-well plates in the presence of 2.5 μg of membrane protein, 0.5 mg of Ysi-poly-l-lysine SPA beads and 0.1 U adenosine deaminase in a final volume of 200 μl of buffer A. Non-specific binding was defined using xanthine amine congener (XAC; 2 μM). Compounds were tested at 10 concentrations from 10 μM-0.3 nM. All assays were conducted in duplicate and repeated at least two times. Assay plates were incubated for 1 hour at room temperature before centrifugation and then bound ligand determined using a Packard Topcount scintillation counter. IC50, the concentration where 50% of the […] binding is displaced, values were calculated using a non-linear curve fitting program and ki values calculated using the Cheng-Prussoff equation.

Data set [2] has as its target T2, human adenosine A2A receptor (Homo sapiens, UniProt P29274).
T2 construct: expressed in transfected cells; host or cells: CHO cells, Semliki Forest virus expression system; membrane preparation
As to the kind of experiment: [3H]-SCH-58261 binding assay, human adenosine A2A receptor (SPA, CHO cell membranes). The note with it: recombinant human A2A in CHO membranes; [3H]-SCH-58261 1 nM; Ki by Cheng-Prussoff; read-out: hA2 (pKi) (converted). Here is the method:
Human Adenosine A2A Receptor
as §1, with “adenosine A2A” for “adenosine A1”, “(buffer A)” for “(buffer A).”, “The [^3H]-SCH-58261 (Dionisotti et al., 1997, Br J Pharmacol 121, 353; 1” for “The [^3H]-DPCPX (([propyl-^3H]8-cyclopentyl-1,3-dipropyxanthine); 0.6”, “counter. IC50 values,” for “counter. IC50,”, “displaced,” for “displaced, values”, “and Ki” for “and ki”

T2 sequence (P29274 whole entry): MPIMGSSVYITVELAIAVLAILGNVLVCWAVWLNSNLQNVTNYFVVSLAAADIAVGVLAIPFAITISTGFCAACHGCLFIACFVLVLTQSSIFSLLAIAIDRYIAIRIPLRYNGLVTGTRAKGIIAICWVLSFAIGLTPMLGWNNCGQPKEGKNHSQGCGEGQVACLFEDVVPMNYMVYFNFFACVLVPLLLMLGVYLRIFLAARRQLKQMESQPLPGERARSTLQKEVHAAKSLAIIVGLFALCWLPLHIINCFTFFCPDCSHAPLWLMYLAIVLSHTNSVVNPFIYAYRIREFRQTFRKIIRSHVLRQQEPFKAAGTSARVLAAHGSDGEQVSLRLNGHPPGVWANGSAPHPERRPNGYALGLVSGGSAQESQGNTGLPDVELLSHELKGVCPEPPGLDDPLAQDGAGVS

As to `COc1ccc(N2CCOCC2)c2sc(C(N)=O)nc12` [Example 1, 4-Methoxy-7-morpholin-4-yl-benzothiazole-2-carboxylic Acid Amide], the melting point fell in the range of 228 to 230 °C. The Ki in data set [1] was 3.98 µM. Also, the Ki in data set [2] is 0.0251 µM.

Turning to `COc1ccc(N2CCOCC2)c2sc(C(=O)NCCc3ccccc3)nc12` [Example 6, 4-Methoxy-7-morpholin-4-yl benzothiazole-2-carboxylic acid phenethyl-amide], the melting point is 50 to 51 °C. Also, the Ki in data set [1] was 1.26 µM. Besides, the Ki in data set [2] is 0.02 µM.

Compound `COc1ccc(N2CCOCC2)c2sc(C(=O)Nc3cccnc3)nc12` [Example 9, 4-Methoxy-7-morpholin-4-yl-benzothiazole-2-carboxylic acid pyridin-3-ylamide] showed a melting point of 220 to 221 °C. The Ki in data set [1] was 3.98 µM. For the same compound, in data set [2], the Ki was 0.0158 µM.

For `COc1ccc(N2CCOCC2)c2sc(C(=O)NCc3ccccn3)nc12` [Example 13, 4-Methoxy-7-morpholin-4-yl-benzothiazole-2-carboxylic acid (pyridin-2-ylmethyl)-amide], the melting point was in the range of 181 to 182 °C. In addition, the Ki in data set [1] was 6.31 µM.

In turn, `COc1ccc(N2CCOCC2)c2sc(C(=O)NCc3cccc(Cl)c3)nc12` [Example 15, 4-Methoxy-7-morpholin-4-yl-benzothiazole-2-carboxylic acid 3-chloro-benzylamide] showed a melting point of 148 to 150 °C. Also, in data set [1], the Ki is 2.51 µM. The Ki in data set [2] is 0.02 µM.

Regarding `COc1ccc(N2CCOCC2)c2sc(C(=O)NCc3ccccc3Cl)nc12` [Example 16, 4-Methoxy-7-morpholin-4-yl-benzothiazole-2-carboxylic acid 2-chloro-benzylamide], the melting point was in the range of 114 to 116 °C. Besides, the Ki in data set [1] is 3.98 µM.

For `COc1ccc(N2CCOCC2)c2sc(C(=O)NCCc3cccs3)nc12` [Example 22, 4-Methoxy-7-morpholin-4-yl-benzothiazole-2-carboxylic acid (2-thiophen-2-yl-ethyl)-amide], the melting point is 120 to 121 °C. Besides, the Ki in data set [1] was 1.26 µM. Besides, the Ki in data set [2] was 0.00398 µM.

Consider `COc1ccccc1CNC(=O)c1nc2c(OC)ccc(N3CCOCC3)c2s1` [Example 25, 4-Methoxy-7-morpholin-4-yl-benzothiazole-2-carboxylic acid 2-methoxy-benzylamide], for which the melting point was 186 to 188 °C. For the same compound, in data set [1], the Ki was 7.94 µM. For the same compound, in data set [2], the Ki is 0.0251 µM.

In turn, `COc1ccccc1CCNC(=O)c1nc2c(OC)ccc(N3CCOCC3)c2s1` [Example 49, 4-Methoxy-7-morpholin-4-yl-benzothiazole-2-carboxylic acid [2-(2-methoxy-phenyl)-ethyl]-amide] registered a melting point of 158 to 160 °C. The Ki in data set [1] is 1.58 µM.

`COc1ccc(N2CCOCC2)c2sc(C(=O)NCCc3ccsc3)nc12` [Example 54, 4-Methoxy-7-morpholin-4-yl-benzothiazole-2-carboxylic acid (2-thiophen-3-yl-ethyl)-amide] yielded a melting point of 137 to 139 °C. Besides, the Ki in data set [1] was 1.26 µM. Besides, in data set [2], the Ki was 0.00631 µM.

For the compound `COc1ccc(N2CCOCC2)c2sc(C(=O)NCCc3cccnc3)nc12` [Example 55, 4-Methoxy-7-morpholin-4-yl-benzothiazole-2-carboxylic acid (2-pyridin-3-yl-ethyl)-amide], the melting point lay in the range of 160 to 163 °C. The Ki in data set [1] was 6.31 µM. Further, the Ki in data set [2] was 0.0251 µM.

Take `COc1ccc(N2CCOCC2)c2sc(C(=O)NCCc3ccc(F)cc3)nc12` [Example 59, 4-Methoxy-7-morpholin-4-yl-benzothiazole-2-carboxylic acid [2-(4-fluoro-phenyl)-ethyl]-amide]: the melting point was 150 to 153 °C. Further, the Ki in data set [1] is 6.31 µM.

Regarding `COc1ccc(N2CCOCC2)c2sc(C(=O)NCCc3ccc(Cl)cc3)nc12` [Example 62, 4-Methoxy-7-morpholin-4-yl-benzothiazole-2-carboxylic acid [2-(4-chloro-phenyl)-ethyl]-amide], the melting point was 153 to 154 °C. In addition, the Ki in data set [1] is 2 µM.

Consider `COc1ccc(N2CCOCC2)c2sc(C(=O)NCc3ccc(C)o3)nc12` [Example 70, 4-Methoxy-7-morpholin-4-yl-benzothiazole-2-carboxylic acid (5-methyl-furan-2-ylmethyl)-amide], for which the melting point fell in the range of 173 to 174 °C.

In turn, `COc1ccc(N2CCOCC2)c2sc(C(=O)NCC(=O)c3sccc3Cl)nc12` [Example 73, 4-Methoxy-7-morpholin-4-yl-benzothiazole-2-carboxylic acid [2-(3-chloro-thiophen-2-yl)-2-oxo-ethyl]-amide] had a melting point of 125 to 127 °C. Further, in data set [1], the Ki was 1.58 µM.

The compound `COc1ccc(N2CCOCC2)c2sc(C(=O)NCCc3ccccc3C)nc12` [Example 74, 4-Methoxy-7-morpholin-4-yl-benzothiazole-2-carboxylic acid (2-o-tolyl-ethyl)-amide] returned a melting point of 129 to 131 °C.

Regarding `COc1ccc(N2CCOCC2)c2sc(C(=O)NCC(=O)c3ccc4c(c3)OCCO4)nc12` [Example 75, 4-Methoxy-7-morpholin-4-yl benzothiazole-2-carboxylic acid [2-(2,3-dihydro-benzo[1,4]dioxin-6-yl)-2-oxo-ethyl]-amide], the melting point was 206 to 208 °C.

In the case of `COc1ccc(N2CCOCC2)c2sc(C(=O)NCC(=O)c3sc4ccccc4c3C)nc12` [Example 76, 4-Methoxy-7-morpholin-4-yl-benzothiazole-2-carboxylic acid [2-(3-methyl-benzo[b]thiophen-2-yl)-2-oxo-ethyl]-amide], the melting point was 185 to 187 °C.

`COc1ccc(N2CCOCC2)c2sc(C(=O)NCC(=O)c3cccs3)nc12` [Example 78, 4-Methoxy-7-morpholin-4-yl-benzothiazole-2-carboxylic acid (2-oxo-2-thiophen-2-yl-ethyl)-amide] had a melting point of 171 to 173 °C.

`COc1ccc(N2CCOCC2)c2sc(C(=O)NCC(=O)c3ccsc3)nc12` [Example 79, 4-Methoxy-7-morpholin-4-yl-benzothiazole-2-carboxylic acid (2-oxo-2-thiophen-3-yl-ethyl)-amide]: the melting point fell in the range of 229 to 232 °C.

Regarding `COc1ccc(N2CCOCC2)c2sc(C(=O)NC(C)c3csc(C)n3)nc12` (stereo not shown) [Example 80, 4-Methoxy-7-morpholin-4-yl-benzothiazole-2-carboxylic acid [1-(2-methyl-thiazol-4-yl)-ethyl]-amide], the melting point was 174 to 175 °C.

In the case of `COc1ccc(N2CCOCC2)c2sc(C(=O)Nc3ccc(C)nc3)nc12` [Example 82, 4-Methoxy-7-morpholin-4-yl-benzothiazole-2-carboxylic acid (6-methyl-pyridin-3-yl)-amide], the melting point was in the range of 145 to 147 °C.

In the case of `COc1ccc(N2CCOCC2)c2sc(C(=O)NCCSc3nnc(N)s3)nc12` [Example 83, 4-Methoxy-7-morpholin-4-yl-benzothiazole-2-carboxylic acid [2-(5-amino-[1,3,4]thiadiazol-2-ylsulfanyl)-ethyl]-amide], the melting point was 237 to 239 °C.

In the case of `COc1ccc(N2CCOCC2)c2sc(C(=O)NC(C)Cc3cc4ccccc4o3)nc12` (stereo not shown) [Example 84, 4-Methoxy-7-morpholin-4-yl-benzothiazole-2-carboxylic acid (2-benzofuran-2-yl-1-methyl-ethyl)-amide], the melting point was in the range of 144 to 146 °C.

By melting point is commonly meant the temperature of the solid-liquid transition.
